# Assay results: PMC4019635 (PLoS ONE, 2014)
# pIC50: −log10 of the molar value.
# Legend:
# RDLbd = target: T1, RDLbd (Drosophila melanogaster, UniProt P25123); assay: cell-based
# T1 sequence (P25123 45-606): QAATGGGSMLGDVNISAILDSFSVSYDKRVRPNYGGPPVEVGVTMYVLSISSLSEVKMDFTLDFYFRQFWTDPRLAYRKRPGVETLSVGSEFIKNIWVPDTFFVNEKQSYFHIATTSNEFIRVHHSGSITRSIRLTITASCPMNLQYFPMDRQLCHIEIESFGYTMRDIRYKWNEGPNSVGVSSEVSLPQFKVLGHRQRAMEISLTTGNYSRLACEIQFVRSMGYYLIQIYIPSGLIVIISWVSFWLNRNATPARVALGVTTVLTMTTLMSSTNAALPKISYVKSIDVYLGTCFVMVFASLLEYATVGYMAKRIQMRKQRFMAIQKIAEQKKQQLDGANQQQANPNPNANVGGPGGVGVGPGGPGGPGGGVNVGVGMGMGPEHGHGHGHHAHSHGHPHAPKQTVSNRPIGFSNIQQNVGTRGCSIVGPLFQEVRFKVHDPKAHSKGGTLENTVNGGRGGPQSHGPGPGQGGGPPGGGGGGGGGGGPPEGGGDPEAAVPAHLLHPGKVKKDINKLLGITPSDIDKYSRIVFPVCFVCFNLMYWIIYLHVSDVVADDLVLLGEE
# [1] = tested on: Drosophila carrying the RDLA^301S mutation; parameters: method as in PMID 11095718; conditions: cited from earlier work
# [2] = tested on: Drosophila carrying the P299S mutation in GluCl; parameters: method as in PMID 11095718; conditions: cited from earlier work
# RDLbdI/VA^301S = assay: cell-based; parameters: species or system Drosophila melanogaster; conditions: compared to wild-type / RDLbdI/V
# [3] = tested on: human glycine α1 receptor A288G; parameters: method as in PMID 20308070; conditions: A288G mutation; cited from earlier work
# RDL A^301S mutation = tested on: RDL A^301S mutation; parameters: method as in PMID 2124226; conditions: cited from earlier work
# RDLbdI/V = RDLbdI/V (Drosophila melanogaster, UniProt P25123, I283V); assay: cell-based; conditions: for concentration at which responses failed to saturate: highest concentration usable, TACA, muscimol, β-alanine insoluble at higher concentrations
# RDLbdI/V, sequence (P25123 45-606 I283V): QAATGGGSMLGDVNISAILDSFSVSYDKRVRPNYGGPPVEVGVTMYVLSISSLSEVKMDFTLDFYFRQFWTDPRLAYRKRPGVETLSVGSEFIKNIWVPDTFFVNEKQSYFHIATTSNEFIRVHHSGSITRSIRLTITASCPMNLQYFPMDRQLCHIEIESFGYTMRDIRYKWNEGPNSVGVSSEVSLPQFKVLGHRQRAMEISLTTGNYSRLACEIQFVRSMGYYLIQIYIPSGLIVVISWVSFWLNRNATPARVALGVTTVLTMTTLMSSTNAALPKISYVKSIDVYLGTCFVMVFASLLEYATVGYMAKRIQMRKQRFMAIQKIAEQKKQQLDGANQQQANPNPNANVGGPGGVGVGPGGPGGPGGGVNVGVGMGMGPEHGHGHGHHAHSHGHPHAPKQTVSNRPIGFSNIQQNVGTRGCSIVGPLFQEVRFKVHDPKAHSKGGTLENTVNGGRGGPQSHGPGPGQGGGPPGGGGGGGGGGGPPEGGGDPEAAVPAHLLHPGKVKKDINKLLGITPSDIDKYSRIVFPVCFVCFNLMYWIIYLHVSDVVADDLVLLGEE
compound,measurement,setting,value
"CC[C@H](C)[C@H]1O[C@]2(CC[C@@H]1C)C[C@@H]1C[C@@H](C/C=C(\C)[C@@H](O[C@H]3C[C@H](OC)[C@@H](O[C@H]4C[C@H](OC)[C@@H](O)[C@H](C)O4)[C@H](C)O3)[C@@H](C)/C=C/C=C3\CO[C@@H]4[C@H](O)C(C)=C[C@@H](C(=O)O1)[C@]34O)O2 [IVM, ivermectin]",pIC50,RDLbd,6.28
same,resistance compared to the wild-type,[1],3.3 fold
same,sensitivity change,[2],ten-fold less sensitive
same,resistance caused by the A^301S mutation,RDLbdI/VA^301S,2 fold
same,increase in sensitivity,[3],~100 fold
"N#Cc1nn(-c2c(Cl)cc(C(F)(F)F)cc2Cl)c(NCc2cnccn2)c1SCF [Pyrafluprole, pyrafluprole]",pIC50,RDLbd,6.20
same,resistance caused by the A^301S mutation,RDLbdI/VA^301S,2 fold
ClC1=C(Cl)[C@]2(Cl)[C@@H]3[C@@H]4C[C@@H]([C@H]5O[C@@H]45)[C@@H]3[C@@]1(Cl)C2(Cl)Cl [dieldrin],resistance,RDL A^301S mutation,> 4000 fold
"NC/C=C/C(=O)O [TACA, trans-4-aminocrotonic acid]",concentration at which responses failed to saturate,RDLbdI/V,6 mM
NCCC(=O)O [β-alanine],concentration at which responses failed to saturate,RDLbdI/V,10 mM
O=C(O)C1=CCNCC1 [isoguvacine],concentration at which responses failed to saturate,RDLbdI/V,3 mM
NCc1cc(=O)[nH]o1 [muscimol],concentration at which responses failed to saturate,RDLbdI/V,3 mM
N#Cc1nn(-c2c(Cl)cc(C(F)(F)F)cc2Cl)c(N)c1[S+]([O-])C(F)(F)F (stereo not drawn) [fipronil],pIC50,RDLbd,6.48
same,current induced when applied alone,"RDLbdI/V; 1 nM−100 µM, no GABA, receptor variant not stated, data not shown",no discernible current
same,resistance caused by the A^301S mutation,RDLbdI/VA^301S,3 fold
